According to PubChem BioAssay (NCI):
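In this assay, cells in 96-well plates receive the compound at five concentrations for 48 hours. Endpoints are linearly interpolated between the surrounding concentrations. The concentration for full growth arrest is given as TGI.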

Experiments:
Assay in all cases: NCI anticancer screen, dose series, 48 h
786-0 renal = tested on: 786-0 renal
A498 renal = tested on: A498 renal
A549 NSCLC = tested on: A549 NSCLC
ACHN renal = tested on: ACHN renal
BT-549 breast = tested on: BT-549 breast
CAKI-1 renal = tested on: CAKI-1 renal
CCRF-CEM leukemia = tested on: CCRF-CEM leukemia
COLO 205 colon = tested on: COLO 205 colon
DU-145 prostate = tested on: DU-145 prostate
EKVX NSCLC = tested on: EKVX NSCLC
HCC-2998 colon = tested on: HCC-2998 colon
HCT-116 colon = tested on: HCT-116 colon
HCT-15 colon = tested on: HCT-15 colon
HOP-62 NSCLC = tested on: HOP-62 NSCLC
HOP-92 NSCLC = tested on: HOP-92 NSCLC
HT29 colon = tested on: HT29 colon
IGROV1 ovarian = tested on: IGROV1 ovarian
K-562 leukemia = tested on: K-562 leukemia
KM12 colon = tested on: KM12 colon
LOX IMVI melanoma = tested on: LOX IMVI melanoma
M14 melanoma = tested on: M14 melanoma
MCF7 breast = tested on: MCF7 breast
MDA-MB-231 breast = tested on: MDA-MB-231 breast
MDA-MB-435 = tested on: MDA-MB-435
MDA-N = tested on: MDA-N
MOLT-4 leukemia = tested on: MOLT-4 leukemia
NCI-H226 lung = tested on: NCI-H226 lung
NCI-H23 lung = tested on: NCI-H23 lung
NCI-H460 lung = tested on: NCI-H460 lung
NCI/ADR-RES ovarian = tested on: NCI/ADR-RES ovarian
OVCAR-3 ovarian = tested on: OVCAR-3 ovarian
OVCAR-4 ovarian = tested on: OVCAR-4 ovarian
OVCAR-5 ovarian = tested on: OVCAR-5 ovarian
OVCAR-8 ovarian = tested on: OVCAR-8 ovarian
PC-3 prostate = tested on: PC-3 prostate
RPMI-8226 leukemia = tested on: RPMI-8226 leukemia
RXF 393 renal = tested on: RXF 393 renal
SF-295 CNS = tested on: SF-295 CNS
SF-539 CNS = tested on: SF-539 CNS
SK-MEL-2 melanoma = tested on: SK-MEL-2 melanoma
SK-MEL-28 melanoma = tested on: SK-MEL-28 melanoma
SK-MEL-5 melanoma = tested on: SK-MEL-5 melanoma
SN12C renal = tested on: SN12C renal
SNB-19 CNS = tested on: SNB-19 CNS
SNB-75 CNS = tested on: SNB-75 CNS
SR leukemia = tested on: SR leukemia
SW-620 colon = tested on: SW-620 colon
T-47D breast = tested on: T-47D breast
U251 CNS = tested on: U251 CNS
UACC-257 melanoma = tested on: UACC-257 melanoma
UACC-62 melanoma = tested on: UACC-62 melanoma
UO-31 renal = tested on: UO-31 renal

Measured: TGI

Cc1cn(C(C)OCCN2C(=O)c3ccccc3C2=O)c(=O)[nH]c1=O (configuration not stated)
> 100 µM: 786-0 renal | A498 renal | A549 NSCLC | ACHN renal | BT-549 breast | CAKI-1 renal | CCRF-CEM leukemia | COLO 205 colon | DU-145 prostate | EKVX NSCLC | HCC-2998 colon | HCT-116 colon | HCT-15 colon | HOP-62 NSCLC | HOP-92 NSCLC | HT29 colon | IGROV1 ovarian | K-562 leukemia | KM12 colon | LOX IMVI melanoma | M14 melanoma | MCF7 breast | MDA-MB-231 breast | MDA-MB-435 | MDA-N | MOLT-4 leukemia | NCI-H226 lung | NCI-H23 lung | NCI-H460 lung | NCI/ADR-RES ovarian | OVCAR-3 ovarian | OVCAR-4 ovarian | OVCAR-5 ovarian | OVCAR-8 ovarian | PC-3 prostate | RPMI-8226 leukemia | RXF 393 renal | SF-295 CNS | SF-539 CNS | SK-MEL-2 melanoma | SK-MEL-28 melanoma | SK-MEL-5 melanoma | SN12C renal | SNB-19 CNS | SNB-75 CNS | SR leukemia | SW-620 colon | T-47D breast | U251 CNS | UACC-257 melanoma | UACC-62 melanoma | UO-31 renal
